Results on one compound are retold here after publication PMC12069692, “Pharmacological inhibition of PLK1/PRC1 triggers mitotic catastrophe and sensitizes lung cancers to chemotherapy” (Cell Death & Disease, 2025).

The target in the assay is T1, PLK1 (Homo sapiens, UniProt P53350).
T1 construct: Recombinant PLK1 protein (Active Motif 81429) in SPR; Flag-PBD in Co-IP-MS
The experiment in a line: SPR (Biacore T200, immobilized PLK1); supported by T1rho NMR, CETSA, Co-IP-MS, in vitro kinase assay (IC50 […]). The class given is binding. In general terms: In SPR one partner is held on a chip, and binding of the other changes the refractive index at the surface.

Each structure is given as a SMILES string.

T1 sequence (P53350 2-603): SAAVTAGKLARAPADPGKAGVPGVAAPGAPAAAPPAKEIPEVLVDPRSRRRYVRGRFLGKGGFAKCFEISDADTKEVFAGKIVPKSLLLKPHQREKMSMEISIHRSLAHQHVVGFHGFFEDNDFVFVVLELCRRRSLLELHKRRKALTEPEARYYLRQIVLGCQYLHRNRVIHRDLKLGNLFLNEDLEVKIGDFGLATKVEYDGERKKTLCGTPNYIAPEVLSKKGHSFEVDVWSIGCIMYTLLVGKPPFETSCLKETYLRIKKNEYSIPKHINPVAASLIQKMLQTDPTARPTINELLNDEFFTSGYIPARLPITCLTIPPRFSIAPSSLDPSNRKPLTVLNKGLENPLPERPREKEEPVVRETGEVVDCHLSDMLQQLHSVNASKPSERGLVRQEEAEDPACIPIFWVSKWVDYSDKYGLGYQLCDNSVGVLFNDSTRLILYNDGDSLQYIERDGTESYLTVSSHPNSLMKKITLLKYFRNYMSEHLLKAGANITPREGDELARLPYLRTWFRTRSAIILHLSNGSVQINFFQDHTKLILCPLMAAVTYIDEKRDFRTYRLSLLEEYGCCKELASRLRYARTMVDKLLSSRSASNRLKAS

Turning to `CN(C)CCN1C(=O)c2cccc3c(S(=O)(=O)NCc4ccc(C(F)(F)F)cc4)ccc(c23)C1=O` [B4], the Kd – broadly, a measure of binding affinity in units of concentration – was about 5.6 µM.
